US8324284B2, “Migrastatin analogs and uses thereof” (Sloan-Kettering Institute for Cancer Research, priority 2003, dated 2012)
Like-named read-outs stand apart in the source and are kept apart here.

What was measured:
[1] = system: 4T1 mouse breast tumor cells; assay: Chamber cell migration assay with 4T1 tumor cells; type: cell-based; conditions: for IC50: Boyden chamber, 6-8 h, average of three experiments; for inhibitory activity on 4T1 tumor cell migration, in words: chamber assay
Protocol: The biological evaluation of the compounds (in terms of their ability to inhibit cell migration) was accomplished in a Boyden chamber cell migration assay. In this assay, mouse breast tumor cells (4T1 cells) or endothelial cells (HUVECs) are seeded on the upper chamber of a transwell insert. Growth factor-containing serum is added to the lower chamber.
Chamber Cell Migration Assay (Tables 4 and 6): Cell migrations were assayed with Boyden chambers [8.0 μm pore size, polyethylene terephthalate membrane, FALCON cell culture insert (Becton-Dickinson)]. 4T1 mouse breast tumor cells or HUVECs were trypsinized and counted. 300 μl of 5−10×10^4 cells in serum-free medium was added to the upper chamber and 500 μl of medium with 10% fetal bovine serum (FBS) was added to the lower chamber. […] Cells on the inside of the transwell inserts were removed with a cotton swab, and cells on the underside of the insert were fixed and stained. Photographs of three random regions were taken and the number of cells was counted to calculate the average number of cells that have transmigrated.

[2] = rcm bond, toluene, 0.25 h
HUVEC = assay: Tube formation assay; type: cell-based, human; conditions: minimal concentration causing definite disturbance of tube network; 16-18 h; tested 200, 100, 50, 25, 10 μM
Protocol: A protocol was designed based on the instructions from the provider (BD Bioscience, San Jose, Calif.). Briefly, wells of a 48 well culture dish were covert with 150 μL matrigel and the matrigel was gelatinized for 30 min at 37° C. A 80-90% confluent HUVEC (BD Bioscience, San Jose, Calif.) culture was trypsin treated, the detached cells were collected by centrifugation and resuspended in EGM-2 media (BD Bioscience, San Jose, Calif.). Cell concentration was adjusted to 100.000 cells/mL. 400 μL of the cell suspension were filled in the matrigel coated wells, and a solution of the inhibitor was added to the intended final concentration. The plates were incubated at 37° C. with 5% CO2 for 16-18 h. Media was removed, and the matrigel surface was washed twice with 500 μL PBS before cells were labeled with 250 μL […] Calcein AM (Pierce, Rockford, Ill.) in PBS for 30 min at 37° C. After two additional washing steps (500 μL PBS) cells were visualized under an inverted microscope. Fluorescence was excited at 488 nm and recorded at 538 nm. The minimum effect concentration was defined as the minimal inhibitor concentration that caused a definite disturbance of the complexity of the formed tube network.

KYSE-520 cells = assay: Wound healing (scratch) assay; type: cell-based; conditions: 28 to 30 h, tested 200, 100, 50, 25, 10 μM
Protocol: The wound healing assay was performed based on the method described by Nakae et al. (Nakae et al., J. Antibiotics (2000), 53, 1130-1136). Briefly, adherent cells were grown in a suitable media to confluence (e.g. KYSE-520 cells in RPMI-1640 with 10% FBS). Cells were starved for 24 h in serum free media. A scratch (ca. 0.5 mm) was applied and the cell layer was washed twice with PBS after removal of the media. Fresh, serum free media with the test compound at the desired concentration was added and the cells were incubated for 28 to 30 h at 37° C., 5% CO2. The scratch size was compared to that observed for cells exposed to 100 μM Migrastatin. Test compounds associated with a scratch size equal to or larger than that observed for cells exposed to 100 μM Migrastatin were deemed to have cell migration inhibitory activity at least equal to Migrastatin.

[3] = system: 4T1 tumor lung metastasis; assay: 4T1 tumor lung metastasis in syngeneic mice; type: in vivo, mouse; conditions: for lung metastasis, colonies (6-thioguanine clonogenic assay): mean and standard deviation; for inhibition of lung metastasis: 10 mg/kg i.p. daily Day 7-25
Protocol: Female BALB/c mice (6-8 week old) were purchased from the Jackson Laboratory (Bar Harbor, Me.). All mice were housed at the Weill Medical College of Cornell University Animal Facilities in accordance with the Principles of Animal Care (NIH publication no. 85-23, revised 1985). 4T1 tumor cells (1×10^5) were injected subcutaneously into the abdominal mammary gland area of mice in 0.1 ml of a single-cell suspension in phosphate buffered saline (PBS) on Day 0. The dosage of tumor implantation was empirically determined to give rise to tumor of ˜10 mm in diameter in untreated wild type mice in 21-23 days. On Day 7, when the tumors averaged in size ˜4-5 mm in diameter, migrastatin analogs or control PBS saline were given every day by intraperitoneal injection at 10 mg/kg or 20 mg/kg per mouse until Day 25. On Day 28, the mice were sacrificed. This regiment of migrastatin analogs was well tolerated with no signs of overt toxicity. Every group included five mice. Primary tumors were measured using electronic calipers on the day when the mice were sacrificed. Tumor size was the square root of the product of two perpendicular diameters. Numbers of metastatic 4T1 cells in lung were determined by the clonogenic assay.^63 In brief, lungs were removed from each mouse on Day 28, finely minced and digested in 5 ml of enzyme cocktail containing 1×PBS and 1 mg/ml collagenase type IV for 2 hours at 37° C. on a platform rocker. After incubation, samples were filtered through 70 uM nylon cell strainers and washed twice with PBS. Resulting cells were suspended and plated serially diluted in 10 cm tissue culture dishes in medium RPMI1640 containing 60 uM thioguanine for clonogenic growth. 6-Thioguanine-resistant tumor cells formed foci after 14 days, at which time they were fixed with methanol and stained with 0.03% methylene blue for counting.
Treatment 4T1 tumor lung metastasis in syngeneic mice with migrastatin analogs (See, FIG. 4). 4T1 tumor cells (10^5) were injected s.c. in the abdominal mammary gland with 0.1 ml of a single-cell suspension. Macroketone or macrolactam at 10 mg/kg or 20 mg/kg was given i.p. on Day 7 when the tumor size was about 5 mm in diameter, and every day until Day 25. On Day 28, the mice were sacrificed. Each group comprised five mice. Lung metastasis was measured by the 6-thiogunine clonogenic assay. The mean and standard deviation are presented. In the control group (daily PBS injection), there were 61300±18900 colonies.

[4] = Metabolic stability in mouse plasma; type: in vitro ADME; conditions: mouse plasma/PBS, 37° C.
Protocol: Mouse Plasma Stability Studies (Table 5): HPLC conditions: The sample is injected and separated using an Inertsil ODS3 6u 3×150 mm column with a mobile phase of MeCN and water (50% for migrastatin) at a flow of 0.4 mL/min, monitored at 220 nm at 0.02 AUFS (the retention time for migrastatin is ca. 4 min, the identity of this peak was confirmed by mass spectral analysis). Incubation and sample preparation conditions: A solution (ca. 30 mM) of chemical compound (Table 5) in DMSO is prepared. 2 μL of the solution is added to a mixture containing 200 μL of mouse plasma and 800 μL of PBS. The resulting solution is put into a water bath at 37° C., and 100 μL of sample is withdrawn at 10, 20, 30, 45, and 60 min. The precipitate is removed by centrifugation and 20 μL of the supernatant is injected onto the HPLC.

**Q.** With C[C@@H]1O[C@H]2C3=C(C(=O)[C@@H]4O[C@@H]4[C@H]3O)[C@@H]1[C@H]1[C@H](C)OC=C3[C@H](O)[C@H]4OC4C(=O)[C@@]312 (stereo partly shown) [epoxyquinol, epoxyquinol A, reference compound] as the molecule, how does the IC50 [1] read?
**A.** 0.026 µM

**Q.** For CO[C@H]1C=CCC/C=C/C(=O)OC/C(C)=C\[C@@H](C)[C@@H]1O[Si](C)(C)C(C)(C)C, which ring closure, yield of all isomers ([2]; from C=CCC/C=C/C(=O)OC/C(C)=C\[C@@H](C)[C@H](O[Si](C)(C)C(C)(C)C)[C@H](C=C)OC, Grubbs-II catalyst, 0.664 mM, 110.0 °C) is on record?
**A.** 55%

**Q.** Which ring closure, yield of all isomers ([2]; from C=CCCCCC(=O)O[C@@H](/C(C)=C\[C@@H](C)[C@H](O[Si](C)(C)C(C)(C)C)[C@H](C=C)OC)[C@H](C)C(=O)CCCC1CC(=O)NC(=O)C1, Grubbs-II catalyst, 0.48 mM, 110.0 °C) does the source give for CO[C@H]1C=CCCCCC(=O)O[C@H]([C@H](C)C(=O)CCCC2CC(=O)NC(=O)C2)/C(C)=C\[C@@H](C)[C@@H]1O[Si](C)(C)C(C)(C)C here?
**A.** 79%

**Q.** What does the source list for COC1C=CCCCCC(=O)OC(C(C)C(=O)CCCC2CC(=O)NC(=O)C2)C(C)=CC(C)C1O (stereo not shown) [2,3-dihydromigrastatin (41), 2,3-Dihydromigrastatin]?
**A.** Minimum effect concentration (HUVEC): 50 µM; Minimum effect concentration (KYSE-520 cells): 25 µM

**Q.** For COC1C=CCCCCC(=O)OC(C(C)C(=O)CCCC2CC(=O)N(C)C(=O)C2)C(C)=CC(C)C1O (stereo not shown) [N-methyl-2,3-dihydromigrastatin (42), N-Methyl-2,3-Dihydromigrastatin], which IC50 [1] is on record?
**A.** 7 µM

**Q.** With CO[C@H]1C=CCCCCC(=O)OC/C(C)=C\[C@@H](C)[C@@H]1O[Si](C)(C)C(C)(C)C as the molecule, how does the ring closure, yield of all isomers ([2]; from C=CCCCCC(=O)OC/C(C)=C\[C@@H](C)[C@H](O[Si](C)(C)C(C)(C)C)[C@H](C=C)OC, Grubbs-II catalyst, 0.498 mM, 110.0 °C) read?
**A.** 76%

**Q.** Which IC50 [1] does the source give for COC1C=CCCCCC(=O)OC(C(C)C)C(C)=CC(C)C1O [(S)-isopropyl macrolactone (65), (S)-Isopropyl Macrolactone] here?
**A.** 227 µM

**Q.** What about the “inhibitory activity on 4T1 tumor cell migration, in words” value (“inhibitory activity” below) [1] of the same molecule?
**A.** only very weak effects on tumor cell migration

**Q.** Which ring closure, yield of all isomers ([2]; from C=CCCCCC(=O)O[C@H](/C(C)=C\[C@@H](C)[C@H](O[Si](C)(C)C(C)(C)C)[C@H](C=C)OC)C(C)C, Grubbs-II, 0.53 mM, 111.0 °C, 2 steps) does the source give for CO[C@H]1C=CCCCCC(=O)O[C@@H](C(C)C)/C(C)=C\[C@@H](C)[C@@H]1O here?
**A.** 65%

**Q.** What does the source list for COC1C=CCCCCC(=NNC(=O)CCOCCOCCOCCOCCNC(=O)CCCCC2SCC3NC(=O)NC32)CCC(C)=CC(C)C1O (mixture of isomers) [biotinylated macrohydrazone (73), Biotinylated Macrohydrazone]?
**A.** IC50 [1]: 0.331 µM; inhibitory activity on 4T1 tumor cell migration, in words [1]: inhibitory potency is largely retained

**Q.** For CO[C@H]1/C=C/CCCCC(=O)OC/C(C)=C\[C@@H](C)[C@@H]1OC(C)=O [acetylated macrolactone (49), Acetylated Macrolactone], which “inhibitory activity” value [1] is on record?
**A.** reduced by roughly an order of magnitude

**Q.** Which results are given for COC1C=CCCCCC(=O)NCC(C)=CC(C)C1O (stereo not shown) [macrolactam (55), Macrolactam]?
**A.** lung metastasis, colonies (6-thioguanine clonogenic assay) ([3]; 10 mg/kg i.p. daily Day 7-25, Day 28): 5333±1778 colonies; inhibition of lung metastasis ([3]; listed as macrolactam): 91%; inhibition of lung metastasis ([3]; listed as macrolactam 55): ~91%; lung metastasis, colonies (6-thioguanine clonogenic assay) ([3]; 20 mg/kg i.p. daily Day 7-25, Day 28): 5675±6263 colonies

**Q.** Which results are given for N-Methyl-migrastatin?
**A.** Minimum effect concentration (HUVEC): 200 µM; Minimum effect concentration (KYSE-520 cells): 100 µM

**Q.** For CO[C@H]1C=CCCCCC(=O)CC/C(C)=C\[C@@H](C)[C@@H]1O[Si](C)(C)C(C)(C)C, which ring closure, yield of all isomers ([2]; from C=CCCCCC(=O)CC/C(C)=C\[C@@H](C)[C@H](O[Si](C)(C)C(C)(C)C)[C@H](C=C)OC, Grubbs-II, 0.508 mM, 111.0 °C) is on record?
**A.** 81%

**Q.** Which IC50 [1] does the source give for COC1C=CCCCCC(=O)OC(C(C)C)C(C)=CC(C)C1O [(R)-isopropyl macrolactone (68), (R)-Isopropyl Macrolactone] here?
**A.** 146 µM

**Q.** And the “inhibitory activity” value [1]?
**A.** only very weak effects on tumor cell migration

**Q.** For CO[C@H]1/C=C/CCCCC(=O)OC/C(C)=C\[C@@H](C)C1=O [oxidized macrolactone (50), Oxidized Macrolactone], which “inhibitory activity” value [1] is on record?
**A.** reduced by roughly an order of magnitude

**Q.** With COC1C=CCCC=CC(=O)OCC(C)=CC(C)C1O (stereo not shown) [migrastatin core (45), Migrastatin Core] as the molecule, how does the “stability (t1/2, mouse plasma)” value [4] read?
**A.** 20 min

**Q.** What about the “stability (t1/2, mouse plasma), in words” value ([4]; 60 min of incubation, stable = intensity of HPLC signal unchanged) of the same molecule?
**A.** hydrolyzed rapidly

**Q.** And the Minimum effect concentration (HUVEC)?
**A.** 10 µM

**Q.** With CO[C@H]1/C=C/CCCCC(O)(C(F)(F)F)CC/C(C)=C\[C@@H](C)[C@@H]1O (stereo partly shown) [macrocyclic CF3-alcohol (71), Macrocyclic CF3-Alcohol] as the molecule, how does the “inhibitory activity” value [1] read?
**A.** displays the same activity profile as macroketone 60

**Q.** With CO[C@H]1C=CCC/C=C/C(=O)O[C@H]([C@H](C)C(=O)CCCC2CC(=O)NC(=O)C2)/C(C)=C\[C@@H](C)[C@@H]1O[Si](C)(C)C(C)(C)C as the molecule, how does the ring closure, yield of all isomers ([2]; from C=CCC/C=C/C(=O)O[C@@H](/C(C)=C\[C@@H](C)[C@H](O[Si](C)(C)C(C)(C)C)[C@H](C=C)OC)[C@H](C)C(=O)CCCC1CC(=O)NC(=O)C1, Grubbs-II catalyst, 0.46 mM, 110.0 °C) read?
**A.** 69%
